Results on three compounds are retold here after paper PMC11096235, “Membrane-bound chemoreception of bitter bile acids and peptides is mediated by the same subset of bitter taste receptors” (Cellular and Molecular Life Sciences: CMLS, 2024).

Peptide text beside a SMILES is read from it.

Common to all, as to assay: FLIPR calcium mobilization (Fluo-4), agonist activation
Common to all, as to format: cell-based
Common to all, as to conditions: HEK 293T-Gα16gust44 cells, pH 7.4
(In general: Calcium flux is commonly read through the fluorescence of an indicator in the cells.)

Test [1] concerns the target T1, Tas2r29 (xtTas2r29) (Xenopus tropicalis, UniProt Q2AB56).
T1 construct: full length, N-terminal sst3 export tag, C-terminal hsv tag; HEK 293T-Galpha16gust44
T1 sequence (Q2AB56 1-290): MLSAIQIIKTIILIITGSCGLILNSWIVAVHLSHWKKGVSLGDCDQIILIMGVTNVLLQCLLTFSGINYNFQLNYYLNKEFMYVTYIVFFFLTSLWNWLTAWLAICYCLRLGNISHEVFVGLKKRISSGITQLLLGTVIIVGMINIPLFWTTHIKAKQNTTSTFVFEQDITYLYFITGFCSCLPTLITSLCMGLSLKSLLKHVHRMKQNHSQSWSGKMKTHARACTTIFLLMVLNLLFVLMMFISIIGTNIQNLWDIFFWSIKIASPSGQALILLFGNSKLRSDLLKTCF

The target in test [2] is T2, zebrafish receptor Tas2r4 (Danio rerio, UniProt Q58WW8).
T2 construct: gene tas2r203; full length, N-terminal sst3 export tag, C-terminal hsv tag; HEK 293T-Galpha16gust44
T2 sequence (Q58WW8 1-305): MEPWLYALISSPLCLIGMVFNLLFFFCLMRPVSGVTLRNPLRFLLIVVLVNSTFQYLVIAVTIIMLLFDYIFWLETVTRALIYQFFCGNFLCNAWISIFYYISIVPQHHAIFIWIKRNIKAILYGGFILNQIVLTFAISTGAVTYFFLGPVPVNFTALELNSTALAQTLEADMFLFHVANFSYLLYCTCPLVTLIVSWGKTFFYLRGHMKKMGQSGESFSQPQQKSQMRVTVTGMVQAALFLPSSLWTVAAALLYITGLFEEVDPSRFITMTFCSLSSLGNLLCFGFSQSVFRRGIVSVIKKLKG

In test [3] the target is T3, chicken Tas2r2 (ggTas2r2) (Gallus gallus, UniProt A0A1D5PXM6).
T3 construct: gene LOC101747503; full length, N-terminal sst3 export tag, C-terminal hsv tag; HEK 293T-Galpha16gust44
T3 sequence (A0A1D5PXM6 1-311): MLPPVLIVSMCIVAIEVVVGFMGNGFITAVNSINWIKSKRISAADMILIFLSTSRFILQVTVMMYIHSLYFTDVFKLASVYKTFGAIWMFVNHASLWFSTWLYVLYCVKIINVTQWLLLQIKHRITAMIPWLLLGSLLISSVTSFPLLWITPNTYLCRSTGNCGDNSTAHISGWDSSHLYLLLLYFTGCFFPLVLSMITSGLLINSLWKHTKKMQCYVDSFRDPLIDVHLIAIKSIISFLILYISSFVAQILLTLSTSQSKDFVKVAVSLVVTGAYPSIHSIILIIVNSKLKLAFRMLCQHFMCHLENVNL

Take `N[C@@H](Cc1c[nH]c2ccccc12)C(=O)N[C@@H](Cc1c[nH]c2ccccc12)C(=O)N[C@@H](Cc1c[nH]c2ccccc12)C(=O)O` [L-Trp-Trp-Trp] (H-Trp-Trp-Trp-OH): the dF/F entry in test [1] was “Tas2r29 exhibited only weak, yet significant, responses to L-Trp-Trp-Trp as well as to CA and GCA”.

For the compound `N[C@@H](Cc1c[nH]c2ccccc12)C(=O)O` [L-Trp], the dF/F entry in test [2] is “Subsequent testing with L- and D-Trp revealed responsiveness to these amino acids”.

On to `C[C@H](CCC(=O)O)[C@H]1CC[C@H]2[C@@H]3[C@H](O)C[C@@H]4C[C@H](O)CC[C@]4(C)[C@H]3C[C@H](O)[C@]12C` [cholic acid], for which the dF/F result in test [3] is listed as “chicken Tas2r2 were only significant for the highest concentrations of the two bile acids”.
